From PubChem BioAssay AID248 (DTP/NCI, 2004)
Several values for one entry are separate records, joined by “and”; a condition that tells them apart may be missing. Equal values may be shown once. Inconclusive results and toxic doses are left out.

Tested on: L1210 leukemia ip in BDF1 mice, survival T/C
Assay: NCI In Vivo Anticancer Drug Screen. Data for tumor model L1210 Leukemia (intraperitoneal) in B6D2F1 (BDF1) mice
Settings: endpoint: mean survival time, higher = longer survival
Summary of the method: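 In this screen, tumor-bearing mice given compound are compared to those given vehicle, and their survival values are reported as a treated-to-control quotient.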

[1] = dose: 100.0 mg/kg/injection, schedule: Q01DX001 (ip), vehicle: saline with Tween-80
[2] = dose: 200.0 mg/kg/injection, schedule: Q01DX001 (ip), vehicle: saline with Tween-80
[3] = dose: 400.0 mg/kg/injection, schedule: Q01DX001 (ip), vehicle: saline with Tween-80
[4] = dose: 50.0 mg/kg/injection, schedule: Q01DX009 (ip), vehicle: Klucel (hydroxypropylcellulose) (HPC)
[5] = dose: 100.0 mg/kg/injection, schedule: Q04DX003 (ip), vehicle: Klucel (hydroxypropylcellulose) (HPC)
[6] = dose: 200.0 mg/kg/injection, schedule: Q04DX003 (ip), vehicle: Klucel (hydroxypropylcellulose) (HPC)
[7] = dose: 400.0 mg/kg/injection, schedule: Q04DX003 (ip), vehicle: Klucel (hydroxypropylcellulose) (HPC)
[8] = dose: 100.0 mg/kg/injection, schedule: Q01DX009 (ip), vehicle: Klucel (hydroxypropylcellulose) (HPC)
[9] = dose: 200.0 mg/kg/injection, schedule: Q01DX009 (ip), vehicle: Klucel (hydroxypropylcellulose) (HPC)
[10] = dose: 50.0 mg/kg/injection, schedule: Q01DX001 (ip), vehicle: saline
[11] = dose: 400.0 mg/kg/injection, schedule: Q01DX001 (ip), vehicle: saline
[12] = dose: 100.0 mg/kg/injection, schedule: Q04DX003 (ip), vehicle: saline with Tween-80
[13] = dose: 200.0 mg/kg/injection, schedule: Q04DX003 (ip), vehicle: saline with Tween-80
[14] = dose: 100.0 mg/kg/injection, schedule: Q01DX001 (ip), vehicle: carboxymethylcellulose (CMC)

O=[N+]([O-])c1ccc(/C=N/C(/N=C/c2ccc([N+](=O)[O-])cc2)c2ccc([N+](=O)[O-])cc2)cc1
T/C (dose: 75.0 mg/kg/injection, schedule: Q01DX009 (ip), vehicle: carboxymethylcellulose (CMC)): 94 % of control
T/C (dose: 100.0 mg/kg/injection, schedule: Q04DX003 (ip), vehicle: carboxymethylcellulose (CMC)): 97 % of control
T/C (dose: 150.0 mg/kg/injection, schedule: Q01DX009 (ip), vehicle: carboxymethylcellulose (CMC)): 90 % of control
T/C (dose: 200.0 mg/kg/injection, schedule: Q04DX003 (ip), vehicle: carboxymethylcellulose (CMC)): 95 % of control
T/C (dose: 300.0 mg/kg/injection, schedule: Q01DX009 (ip), vehicle: carboxymethylcellulose (CMC)): 92 % of control
T/C (dose: 400.0 mg/kg/injection, schedule: Q04DX003 (ip), vehicle: carboxymethylcellulose (CMC)): 92 % of control

O=C(Nc1ccc(Cl)c(Cl)c1)SCCSC(=O)Nc1ccc(Cl)c(Cl)c1
T/C [1]: 107 % of control
T/C [2]: 92 % of control
T/C [3]: 93 % of control

CC(C)(C)OOC(=O)c1ccccc1
T/C (dose: 25.0 mg/kg/injection, schedule: Q01DX009 (ip), vehicle: Klucel (hydroxypropylcellulose) (HPC)): 96 % of control
T/C (dose: 50.0 mg/kg/injection, schedule: Q01DX001 (ip), vehicle: other): 90 % of control
T/C [4]: 97 % of control
T/C (dose: 75.0 mg/kg/injection, schedule: Q01DX009 (ip), vehicle: Klucel (hydroxypropylcellulose) (HPC)): 97 % of control and 101 % of control
T/C (dose: 100.0 mg/kg/injection, schedule: Q01DX001 (ip), vehicle: other): 100 % of control
T/C [5]: 107 % of control
T/C (dose: 200.0 mg/kg/injection, schedule: Q01DX001 (ip), vehicle: other): 102 % of control
T/C [6]: 115 % of control
T/C (dose: 400.0 mg/kg/injection, schedule: Q01DX001 (ip), vehicle: other): 94 % of control
T/C [7]: 96 % of control

O=C(Nc1ccc(CCO)cc1)Nc1cc(C(F)(F)F)ccc1Cl
T/C [8]: 100 % of control
T/C [9]: 95 % of control

CC(=O)OC1C(OS(=O)(=O)c2ccc(C)cc2)C(COC(=O)c2ccccc2)OC1n1cnc2c(NC(=O)c3ccccc3)ncnc21 (stereo not drawn)
T/C (dose: 100.0 mg/kg/injection, schedule: Q01DX005 (ip), vehicle: saline): 97 % of control
T/C (dose: 200.0 mg/kg/injection, schedule: Q01DX005 (ip), vehicle: saline): 90 % of control

C[N+]1(CCCl)CCOCC1
T/C (dose: 20.0 mg/kg/injection, schedule: Q01DX009 (ip), vehicle: Klucel (hydroxypropylcellulose) (HPC)): 97 % of control
T/C (dose: 40.0 mg/kg/injection, schedule: Q01DX009 (ip), vehicle: Klucel (hydroxypropylcellulose) (HPC)): 102 % of control

O=c1nc2ccc3[nH]c(O)c4ccc1c2c34
T/C [10]: 104 % of control
T/C (dose: 100.0 mg/kg/injection, schedule: Q01DX001 (ip), vehicle: saline): 104 % of control
T/C (dose: 200.0 mg/kg/injection, schedule: Q01DX001 (ip), vehicle: saline): 104 % of control
T/C [11]: 98 % of control

Nc1ccc2c(c1)Cc1cc(NC(=O)C(F)(F)F)ccc1-2
T/C [12]: 100 % of control
T/C [13]: 96 % of control
T/C (dose: 400.0 mg/kg/injection, schedule: Q04DX003 (ip), vehicle: saline with Tween-80): 92 % of control

C[N+](C)(C)Cc1ccc2ccccc2c1Br
T/C [10]: 97 % of control

Cc1ccc2c(CCCC(=O)O)c(C)c(=O)oc2c1
T/C (dose: 100.0 mg/kg/injection, schedule: Q01DX001 (ip), vehicle: Klucel (hydroxypropylcellulose) (HPC)): 98 % of control
T/C [5]: 103 % of control
T/C (dose: 200.0 mg/kg/injection, schedule: Q01DX001 (ip), vehicle: Klucel (hydroxypropylcellulose) (HPC)): 98 % of control
T/C [6]: 96 % of control
T/C (dose: 400.0 mg/kg/injection, schedule: Q01DX001 (ip), vehicle: Klucel (hydroxypropylcellulose) (HPC)): 100 % of control
T/C [7]: 88 % of control

NC(N)=NCC1COc2ccccc2O1 (stereo not drawn)
T/C (dose: 25.0 mg/kg/injection, schedule: Q01DX001 (ip), vehicle: carboxymethylcellulose (CMC)): 103 % of control
T/C (dose: 50.0 mg/kg/injection, schedule: Q01DX001 (ip), vehicle: carboxymethylcellulose (CMC)): 106 % of control
T/C [14]: 108 % of control

CC(=O)OCC1OC(N2C(=O)/C(=C(/C)c3ccncc3)SC2=S)C(OC(C)=O)C(OC(C)=O)C1OC(C)=O (stereo not drawn)
T/C (dose: 25.0 mg/kg/injection, schedule: Q01DX005 (ip), vehicle: water): 94 % of control
T/C (dose: 50.0 mg/kg/injection, schedule: Q01DX005 (ip), vehicle: water): 97 % of control
T/C (dose: 100.0 mg/kg/injection, schedule: Q01DX005 (ip), vehicle: water): 97 % of control
T/C (dose: 200.0 mg/kg/injection, schedule: Q01DX005 (ip), vehicle: water): 97 % of control
T/C (dose: 400.0 mg/kg/injection, schedule: Q01DX005 (ip), vehicle: water): 89 % of control

CC(C)(C1c2ccccc2NC(=O)c2ccccc21)[N+](=O)[O-] (stereo not drawn)
T/C [12]: 101 % of control
T/C [13]: 94 % of control

O=C(O)CCCC1CCCCC1.[Cu+2]
T/C (dose: 2.5 mg/kg/injection, schedule: Q01DX009 (ip), vehicle: Klucel (hydroxypropylcellulose) (HPC)): 101 % of control
T/C (dose: 2.5 mg/kg/injection, schedule: Q04DX003 (ip), vehicle: Klucel (hydroxypropylcellulose) (HPC)): 97 % of control
T/C (dose: 5.0 mg/kg/injection, schedule: Q01DX009 (ip), vehicle: Klucel (hydroxypropylcellulose) (HPC)): 101 % of control
T/C (dose: 5.0 mg/kg/injection, schedule: Q04DX003 (ip), vehicle: Klucel (hydroxypropylcellulose) (HPC)): 101 % of control
T/C (dose: 10.0 mg/kg/injection, schedule: Q01DX009 (ip), vehicle: Klucel (hydroxypropylcellulose) (HPC)): 92 % of control
T/C (dose: 10.0 mg/kg/injection, schedule: Q04DX003 (ip), vehicle: Klucel (hydroxypropylcellulose) (HPC)): 97 % of control

CC(C(=O)c1ccc(O)c(O)c1)N1CCCCC1 (stereo not drawn)
T/C [14]: 102 % of control
T/C (dose: 200.0 mg/kg/injection, schedule: Q01DX001 (ip), vehicle: carboxymethylcellulose (CMC)): 102 % of control
T/C (dose: 400.0 mg/kg/injection, schedule: Q01DX001 (ip), vehicle: carboxymethylcellulose (CMC)): 96 % of control

Cc1cccc2c(Nc3ccc(NS(C)(=O)=O)cc3)c3ccc([N+](=O)[O-])cc3nc12
T/C (dose: 4.8 mg/kg/injection, schedule: Q01DX009 (ip), vehicle: Klucel (hydroxypropylcellulose) (HPC)): 151 % of control
T/C (dose: 9.5 mg/kg/injection, schedule: Q01DX009 (ip), vehicle: Klucel (hydroxypropylcellulose) (HPC)): 176 % of control
T/C (dose: 10.0 mg/kg/injection, schedule: Q01DX009 (sc), vehicle: saline): 107 % of control
T/C (dose: 19.0 mg/kg/injection, schedule: Q01DX009 (ip), vehicle: Klucel (hydroxypropylcellulose) (HPC)): 154 % of control
T/C (dose: 20.0 mg/kg/injection, schedule: Q01DX009 (sc), vehicle: saline): 121 % of control
T/C (dose: 40.0 mg/kg/injection, schedule: Q01DX009 (sc), vehicle: saline): 123 % of control
T/C (dose: 80.0 mg/kg/injection, schedule: Q01DX009 (sc), vehicle: saline): 152 % of control
T/C (dose: 178.0 mg/kg/injection, schedule: Q01DX001 (ip), vehicle: saline): 102 % of control
T/C (dose: 267.0 mg/kg/injection, schedule: Q01DX001 (ip), vehicle: saline): 97 % of control
T/C [11]: 103 % of control

CCC(=N\N=C(N)N)/C(C)=N\N=C(N)N
T/C (dose: 15.0 mg/kg/injection, schedule: Q01DX Z (ip), vehicle: saline): 93 % of control
T/C (dose: 30.0 mg/kg/injection, schedule: Q01DX Z (ip), vehicle: saline): 98 % of control
T/C (dose: 120.0 mg/kg/injection, schedule: Q01DX Z (ip), vehicle: saline): 121 % of control

O=C(O)CCCC1OCCO1
T/C [1]: 98 % of control
T/C [2]: 95 % of control
T/C [3]: 101 % of control

CCCCCCCCCCCCCCCCNS(=O)(=O)c1ccc(NN)cc1
T/C [4]: 98 % of control
T/C [8]: 99 % of control
T/C [5]: 97 % of control
T/C [9]: 91 % of control
T/C [6]: 95 % of control

O=C1NCC(Nc2ccccc2Cl)C(=O)N1 (stereo not drawn)
T/C (dose: 100.0 mg/kg/injection, schedule: Q01DX Z (ip), vehicle: saline): 96 % of control

COC(OC)c1[nH]c(=S)[nH]c(=O)c1Cc1ccccc1Cl
T/C (dose: 100.0 mg/kg/injection, schedule: Q04DX002 (ip), vehicle: Klucel (hydroxypropylcellulose) (HPC)): 97 % of control
T/C (dose: 200.0 mg/kg/injection, schedule: Q04DX002 (ip), vehicle: Klucel (hydroxypropylcellulose) (HPC)): 97 % of control
T/C (dose: 400.0 mg/kg/injection, schedule: Q04DX002 (ip), vehicle: Klucel (hydroxypropylcellulose) (HPC)): 105 % of control
